US20110105496A1, “Methods For The Treatment Of Myosin Heavy Chain-Mediated Conditions Using 4,7-Dihydrothieno[2,3-B]Pyridine Compounds” (priority 2005, published 2011)

Tested on: alpha-MyHC
Assay: alpha-MyHC cytoblot process in neonatal rat ventricular myocytes (NRVM)
Type: cell-based
Settings: NRVM, 72 hours; for EC50: alpha-MyHC cytoblot; for Max Plateau: maximum of dose response fit
Protocol: In vitro activity of each compound is measured using the alpha-MyHC cytoblot process. Briefly, neonatal rat ventricular myocytes (NRVM) at 120,000 cells/ml in HyQ DME/High modified culture media supplemented with 10% charcoal/dextran treated FBS, 0.1% Nutridoma-SP, 1:100 MEM non-essential amino acids, 1:50 MEM amino acids solution w/o L-Gln, 1 mM sodium pyruvate and 1:100 P/S/G, are plated on gelatin coated sterile 384-well plates (Costar 3712) at 6,000 cells per well. Cells are incubated overnight at 37° C. in 5% CO2 100% humidity. Following overnight growth the media is changed to HyQ DME/High modified culture media supplemented with 0.3% Nutridoma-SP, 1:100 MEM non-essential amino acids, 1:50 MEM amino acids solution w/o L-Gln, 1 mM sodium pyruvate and 1:100 P/S/G. Cells are then dosed with serial dilutions of each compound in DMSO. Each concentration in the dose range is dosed in quadruplicate. Dosing is done in such a way so that the final DMSO concentration was 0.44%. Compound dilutions are 3-fold with the final top concentration of 10 uM. […] Following dosing, the cells are incubated for 72 hours at 37° C. in 5% CO2 100% humidity and then processed with the cytoblot method. Briefly, cell media is aspirated and cell monolayers washed with PBS and fixed with 100% methanol for 30 minutes. Fixed cells are then blocked with PBS, 0.05% Tween-20, 1% BSA, for 1 hour. Following blocking, cells are incubated with primary alpha-MyHC-specific antibody antibody (1:30 dilution of BA-G5 hybridoma conditioned media, ATCC HB276) for 1 hour. Following incubation with the primary antibody, cells are washed with PBS, 0.05% Tween-20, 1% BSA and incubated with secondary antibody (1:1000 dilution, goat-anti-mouse HRP, Southern Biotech, 1031-05) for 1 hour. Following incubation with the secondary antibody, wells are washed and incubated in SuperSignal, West Dura HRP-luminescence substrate for 30 seconds under shaking at room temperature. Luminescence is measured using a Packard Fusion plate reader. […] RLU values are converted into per cent fraction of low control and dose responses are fitted to a sigmoidal 4-parameter equation (XLFit, IDBS) where the EC50 and Max Plateau values were extracted. […] Max Plateau is the […] maximum value determined by the dose response fit.

[1] = Table 1, low control = vehicle only

| SMILES | EC50 (Table 1, mean ± spread) [nM] | Max Plateau [1] | EC50 (Table 2 (esters)) [nM] | Max Plateau (Table 2 (esters)) |
| --- | --- | --- | --- | --- |
| CCC(=O)C1=C(CC)Nc2sc(C(=O)c3ccc4c(c3)OCO4)c(N)c2C1c1ccccc1F (stereo not shown) [Compound 71] | 57.5 | 223.30 ± 32.84 per cent fraction of low control | – | – |
| CCC(=O)C1=C(CC)Nc2sc(C(=O)c3ccc(F)c(F)c3)c(N)c2C1c1ccccc1 (stereo not shown) [Compound 72] | 9.23 | 223.99 ± 24.51 per cent fraction of low control | – | – |
| CCC(=O)C1=C(CC)Nc2sc(C(=O)c3cc(C(F)(F)F)cc(C(F)(F)F)c3)c(N)c2C1c1ccccc1 (stereo not shown) [Compound 73] | 8.92 | 205.27 ± 38.78 per cent fraction of low control | – | – |
| CCC(=O)C1=C(CC)Nc2sc(C(=O)c3cccc(C(=O)OC)c3)c(N)c2C1c1ccccc1 (stereo not shown) [Compound 74] | 9.84 | 262.81 ± 32.38 per cent fraction of low control | – | – |
| CCC(=O)C1=C(CC)Nc2sc(C(=O)c3ccc(Cl)c(Cl)c3)c(N)c2C1c1cccnc1 (stereo not shown) [Compound 75] | 61.3 | 226.71 ± 40.80 per cent fraction of low control | – | – |
| CCC(=O)C1=C(CC)Nc2sc(C(=O)c3cc(F)cc(F)c3)c(N)c2C1c1ccccc1 (stereo not shown) [Compound 76] | 24.2 | 230.70 ± 23.22 per cent fraction of low control | – | – |
| CCC(=O)C1=C(CC)Nc2sc(C(=O)c3cccc(C(=O)O)c3)c(N)c2C1c1ccccc1 (stereo not shown) [Compound 77] | 2140 | 220.00 ± 10.00 per cent fraction of low control | – | – |
| CCC(=O)C1=C(CC)Nc2sc(C(=O)c3ccccc3)c(N)c2C1c1ccccc1F (stereo not shown) [Compound 78] | 6.77 | 269.77 ± 35.30 per cent fraction of low control | – | – |
| CCC(=O)C1=C(CC)Nc2sc(C(=O)c3ccc(F)cc3)c(N)c2C1c1ccccc1 (stereo not shown) [Compound 79] | 40.8 | 241.90 ± 15.79 per cent fraction of low control | – | – |
| CCC(=O)C1=C(CC)Nc2sc(C(=O)c3ccc(Cl)cc3)c(N)c2C1c1ccccc1 (stereo not shown) [Compound 80] | 103 | 226.13 ± 5.25 per cent fraction of low control | – | – |
| CCC(=O)C1=C(CC)Nc2sc(C(=O)c3ccc(Cl)c(Cl)c3)c(N)c2C1c1ccc(OC)cc1F (stereo not shown) [Compound 81] | 350 | 184.00 ± 15.51 per cent fraction of low control | – | – |
| CCC(=O)C1=C(CC)Nc2sc(C(=O)c3ccccc3Cl)c(N)c2C1c1ccccc1 (stereo not shown) [Compound 82] | 14.8 | 245.96 ± 30.73 per cent fraction of low control | – | – |
| CCC(=O)C1=C(CC)Nc2sc(C(=O)c3ccc(Cl)c(Cl)c3)c(N)c2C1c1ccc(O)cc1Cl (stereo not shown) [Compound 83] | 0.249 | 274.88 ± 44.56 per cent fraction of low control | – | – |
| CCC(=O)C1=C(CC)Nc2sc(C(=O)c3ccc(Cl)c(Cl)c3)c(N)c2C1c1cccc(F)c1 (stereo not shown) [Compound 84] | 5.4 | 242.72 ± 19.34 per cent fraction of low control | – | – |
| CCC(=O)C1=C(CC)Nc2sc(C(=O)c3ccc(Cl)c(Cl)c3)c(N)c2C1c1cccc2ccccc12 (stereo not shown) [Compound 85] | – | 105.90 ± 6.18 per cent fraction of low control | – | – |
| CCCC(=O)C1=C(CCC)Nc2sc(C(=O)c3ccc(Cl)c(Cl)c3)c(N)c2C1c1ccccc1 (stereo not shown) [Compound 86] | 627 | 131.26 ± 2.34 per cent fraction of low control | – | – |
| CCCC(=O)C1=C(CCC)Nc2sc(C(=O)c3ccc(Cl)c(Cl)c3)c(N)c2C1c1ccccc1F (stereo not shown) [Compound 87] | 217 | 187.66 ± 12.24 per cent fraction of low control | – | – |
| CCC(=O)C1=C(CC)Nc2sc(C(=O)c3ccc(Cl)c(Cl)c3)c(N)c2C1c1ccc2ccccc2c1 (stereo not shown) [Compound 88] | – | 113.45 ± 11.92 per cent fraction of low control | – | – |
| CCC(=O)C1=C(CC)Nc2sc(C(=O)c3ccc(Cl)c(C)c3)c(N)c2C1c1ccccc1 (stereo not shown) [Compound 89] | 9.69 | 230.09 ± 19.81 per cent fraction of low control | – | – |
| CCC(=O)C1=C(CC)Nc2sc(C(=O)c3cc(C(C)(C)C)c(O)c(C(C)(C)C)c3)c(N)c2C1c1ccccc1 (stereo not shown) [Compound 90] | – | 300.00 ± 0.00 per cent fraction of low control | – | – |
| CCCC(=O)C1=C(CCC)Nc2sc(C(=O)c3ccc(Cl)cc3Cl)c(N)c2C1c1ccccc1F (stereo not shown) [Compound 91] | 198 | 143.39 ± 20.69 per cent fraction of low control | – | – |

| SMILES | EC50 (Table 1, mean ± spread) [nM] | Max Plateau [1] | EC50 (Table 2 (esters)) [nM] | Max Plateau (Table 2 (esters)) |
| --- | --- | --- | --- | --- |
| CCCC(=O)C1=C(CCC)Nc2sc(C(=O)c3cc(Cl)ccc3Cl)c(N)c2C1c1ccccc1F (stereo not shown) [Compound 92] | 50.5 | 189.00 ± 25.40 per cent fraction of low control | – | – |
| CCCC(=O)C1=C(CCC)Nc2sc(C(=O)c3cc(Cl)ccc3Cl)c(N)c2C1c1ccccc1 (stereo not shown) [Compound 94] | 118 | 153.83 ± 13.14 per cent fraction of low control | – | – |
| CCCC(=O)C1=C(CCC)Nc2sc(C(=O)c3ccc(F)c(F)c3)c(N)c2C1c1ccccc1 (stereo not shown) [Compound 95] | 610 | 147.01 ± 6.43 per cent fraction of low control | – | – |
| CCC(=O)C1=C(CC)Nc2sc(C(=O)c3cccc([N+](=O)[O-])c3)c(N)c2C1c1ccccc1 (stereo not shown) [Compound 96] | 17.1 | 254.87 ± 72.67 per cent fraction of low control | – | – |
| CCC(=O)C1=C(CC)Nc2sc(C(=O)c3cccc([N+](=O)[O-])c3)c(N)c2C1c1ccccc1F (stereo not shown) [Compound 97] | 1.64 | 247.24 ± 38.88 per cent fraction of low control | – | – |
| CCC(=O)C1=C(CC)Nc2sc(C(=O)c3ccc(Cl)c(Cl)c3)c(N)c2C1c1ccnc(F)c1 (stereo not shown) [Compound 98] | 4.99 | 255.02 ± 32.01 per cent fraction of low control | – | – |
| CCC(=O)C1=C(CC)Nc2sc(C(=O)c3ccc(Cl)c(Cl)c3)c(N)c2C1c1ccnc(Cl)c1 (stereo not shown) [Compound 99] | 5.23 | 264.37 ± 33.84 per cent fraction of low control | – | – |
| CCC(=O)C1=C(CC)Nc2sc(C(=O)c3ccc(Cl)c(Cl)c3)c(N)c2C1c1cc(F)cc(F)c1 (stereo not shown) [Compound 100] | 5.73 | 262.04 ± 31.65 per cent fraction of low control | – | – |
| CCC(=O)C1=C(CC)Nc2sc(C(=O)c3ccc(F)c(F)c3)c(N)c2C1c1cc(F)cc(F)c1 (stereo not shown) [Compound 101] | 3.72 | 230.49 ± 17.13 per cent fraction of low control | – | – |
| CCC(=O)C1=C(CC)Nc2sc(C(=O)c3ccc(F)c(F)c3)c(N)c2C1c1ccnc(F)c1 (stereo not shown) [Compound 102] | 4.18 | 269.88 ± 36.90 per cent fraction of low control | – | – |
| CCC(=O)C1=C(CC)Nc2sc(C(=O)c3cccnc3)c(N)c2C1c1ccnc(F)c1 (stereo not shown) [Compound 103] | 10.5 | 254.65 ± 31.26 per cent fraction of low control | – | – |
| CCC(=O)C1=C(CC)Nc2sc(C(=O)c3ccc(Cl)c(Cl)c3)c(N)c2C1c1ccncc1 (stereo not shown) [Compound 104, 1-[3-amino-2-(3,4 dichloro-benzoyl)-6-ethyl-4 pyridin-4-yl-4,7 dihydro-thieno[2,3-b]pyridin-5-yl]-propan-1-one] | – | 242.77 ± 33.52 per cent fraction of low control | – | – |
| CCC(=O)C1=C(CC)Nc2sc(C(=O)c3ccccc3)c(N)c2C1c1cc(F)cc(F)c1 (stereo not shown) [Compound 105] | 4.38 | 273.18 ± 37.33 per cent fraction of low control | – | – |
| CCC(=O)C1=C(CC)Nc2sc(C(=O)c3ccccc3Br)c(N)c2C1c1ccccc1 (stereo not shown) [Compound 106] | 8.93 | 244.21 ± 29.53 per cent fraction of low control | – | – |
| CCC(=O)C1=C(CC)Nc2sc(C(=O)c3c(Cl)cccc3Cl)c(N)c2C1c1ccccc1F (stereo not shown) [Compound 107] | 1.67 | 273.85 ± 29.06 per cent fraction of low control | – | – |
| CCC(=O)C1=C(CC)Nc2sc(C(=O)c3ccc(F)c(F)c3)c(N)c2C1c1ccccc1F (stereo not shown) [Compound 108, 1-[3-amino-2-(3,4 difluoro-benzoyl)-6-ethyl-4-(2 fluoro-phenyl)-4,7 dihydro-thieno[2,3-b]pyridine-5-yl]propan-1-one] | – | 266.30 ± 58.14 per cent fraction of low control | – | – |
| CCC(=O)C1=C(CC)Nc2sc(C(=O)c3ccc(C#N)cc3)c(N)c2C1c1ccccc1 (stereo not shown) [Compound 112] | – | 266.67 ± 57.74 per cent fraction of low control | – | – |
| CCOC(=O)C1=C(C)Nc2sc(C(=O)c3ccc(Cl)c(Cl)c3)c(N)c2C1c1ccccc1 (stereo not shown) [Compound 113] | – | – | 68 | 256.38 per cent fraction of low control |
| COC(=O)C1=C(C(C)C)Nc2sc(C(=O)c3ccc(Cl)c(Cl)c3)c(N)c2C1c1ccccc1 (stereo not shown) [Compound 116] | – | – | 70 | 107.57 per cent fraction of low control |
| COCCOC(=O)C1=C(C)Nc2sc(C(=O)c3ccc(Cl)c(Cl)c3)c(N)c2C1c1ccccc1 (stereo not shown) [Compound 119] | – | – | 142 | 234.93 per cent fraction of low control |
